The target of one assay is T1, Human αvβ3 (Homo sapiens, UniProt P05106+P06756).
T1 construct: purchased Chemicon International Inc., Temecula, Calif
Nature of the assay: In Vitro Solid Phase Purified αvβ3 Binding Assay (vitronectin/αvβ3). Conditions: vitronectin binding to immobilized purified human αvβ3, mean ± spread. The protocol: In Vitro Solid Phase Purified αvβ3 Binding Assay
(§1) Human αvβ3 (Chemicon International Inc., Temecula, Calif.), at a concentration of 1 μg/ml dissolved in Tris buffer (20 mM Tris, 1 mM CaCl2, 1 mM MgCl2, 10 μM MnCl2, 150 mM NaCl), was immobilized on Immulon 96 well plates (Dynex Technologies, Chantilly, Va.) overnight at 4° C. Plates were washed and treated with blocking buffer (3% BSA in Tris buffer) for 2 h at 37° C. Plates were then rinsed 2 times with assay buffer comprised of Tris buffer. Synthesized compounds were added to wells in duplicate immediately prior to the addition of 2 nM vitronectin (Sigma, St. Louis, Mo.). Following a 3 hour incubation at 37° C., plates were washed 5 times in assay buffer. An anti-human vitronectin IgG rabbit polyclonal antibody (Calbiochem, San Diego, Calif.) was added (1:2000) and plates were incubated for 1 hour at room temperature. VectaStain ABC peroxidase kit reagents (Vector Laboratories, Burlingame, Calif.) employing a biotin labeled anti-rabbit IgG, were utilized for detection of bound antibody. Plates were read at 490 nm on a Molecular Devices (Sunnyvale, Calif.) microplate reader.

In a further assay the target is GP IIb/IIIa (Homo sapiens, UniProt P05106+P08514). Description: In Vitro Solid Phase Purified GP IIb/IIIa Binding Assay (biotinylated fibrinogen). The settings on record: biotinylated fibrinogen binding to immobilized purified GP IIb/IIIa, mean ± spread. The protocol: In Vitro Solid Phase Purified GP IIb/IIIa Binding Assay
Sequence of GP IIb/IIIa (P08514 32-887 limits assumed): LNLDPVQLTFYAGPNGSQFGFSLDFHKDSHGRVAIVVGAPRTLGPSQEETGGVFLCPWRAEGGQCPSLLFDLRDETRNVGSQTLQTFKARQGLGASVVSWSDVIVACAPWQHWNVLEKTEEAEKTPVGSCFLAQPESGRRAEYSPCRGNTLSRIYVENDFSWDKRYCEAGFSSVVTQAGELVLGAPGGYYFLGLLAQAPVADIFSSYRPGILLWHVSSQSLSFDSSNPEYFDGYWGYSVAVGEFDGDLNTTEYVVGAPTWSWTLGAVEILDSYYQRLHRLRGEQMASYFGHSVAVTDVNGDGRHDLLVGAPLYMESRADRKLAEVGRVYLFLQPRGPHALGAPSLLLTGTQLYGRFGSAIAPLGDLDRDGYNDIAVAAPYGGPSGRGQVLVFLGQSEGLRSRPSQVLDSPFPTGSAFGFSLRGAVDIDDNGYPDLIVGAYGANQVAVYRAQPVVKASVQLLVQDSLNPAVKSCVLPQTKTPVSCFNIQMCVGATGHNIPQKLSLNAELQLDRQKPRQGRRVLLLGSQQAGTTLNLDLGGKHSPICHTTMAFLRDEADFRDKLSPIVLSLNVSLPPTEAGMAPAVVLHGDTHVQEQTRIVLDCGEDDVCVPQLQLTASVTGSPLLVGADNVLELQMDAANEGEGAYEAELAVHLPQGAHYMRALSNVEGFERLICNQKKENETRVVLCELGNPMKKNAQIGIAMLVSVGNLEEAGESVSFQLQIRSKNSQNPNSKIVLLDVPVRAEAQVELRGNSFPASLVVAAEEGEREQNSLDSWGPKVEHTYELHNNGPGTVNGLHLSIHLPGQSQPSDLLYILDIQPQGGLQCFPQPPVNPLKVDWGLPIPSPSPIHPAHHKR
Sequence of GP IIb/IIIa (P08514 891-1039 partner limits assumed): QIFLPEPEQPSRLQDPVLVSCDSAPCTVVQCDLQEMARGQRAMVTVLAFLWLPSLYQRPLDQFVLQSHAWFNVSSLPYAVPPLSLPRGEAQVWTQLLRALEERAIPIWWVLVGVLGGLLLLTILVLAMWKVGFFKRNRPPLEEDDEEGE
Sequence of GP IIb/IIIa (P05106 27-788): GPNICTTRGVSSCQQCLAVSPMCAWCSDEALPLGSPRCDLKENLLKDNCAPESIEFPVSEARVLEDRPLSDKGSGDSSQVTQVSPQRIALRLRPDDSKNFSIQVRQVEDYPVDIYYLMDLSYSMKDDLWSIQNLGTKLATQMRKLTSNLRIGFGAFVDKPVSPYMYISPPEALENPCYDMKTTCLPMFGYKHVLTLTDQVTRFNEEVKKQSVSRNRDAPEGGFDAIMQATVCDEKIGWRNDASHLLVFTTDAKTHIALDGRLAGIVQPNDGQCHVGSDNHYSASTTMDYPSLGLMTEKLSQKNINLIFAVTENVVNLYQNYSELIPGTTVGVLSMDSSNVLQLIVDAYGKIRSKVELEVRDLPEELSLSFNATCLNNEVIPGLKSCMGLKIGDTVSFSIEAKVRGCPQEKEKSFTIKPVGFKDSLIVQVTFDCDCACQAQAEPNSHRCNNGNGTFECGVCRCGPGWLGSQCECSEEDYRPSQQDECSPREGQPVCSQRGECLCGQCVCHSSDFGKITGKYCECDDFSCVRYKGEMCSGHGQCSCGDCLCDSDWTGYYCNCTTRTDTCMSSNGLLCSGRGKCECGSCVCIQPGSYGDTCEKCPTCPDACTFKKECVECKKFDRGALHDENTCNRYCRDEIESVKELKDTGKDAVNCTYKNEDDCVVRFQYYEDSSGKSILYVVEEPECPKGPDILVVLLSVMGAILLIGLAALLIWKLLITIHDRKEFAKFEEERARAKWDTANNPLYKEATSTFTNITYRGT
The plate was covered and incubated overnight at 4° C. The GP IIb/IIIa solution was discarded and 150 μL of 5% BSA was added and incubated at RT for 1-3 h. The plate was washed extensively with modified Tyrodes buffer. Biotinylated fibrinogen (25 μL/well) at 2× final concentration was added to the wells that contain the test compounds (25 μL/well). The plate was covered and incubated at RT for 2-4 h. Twenty minutes prior to incubation completion, one drop of Reagent A (VectaStain ABC Horseradish Peroxidase kit, Vector Laboratories, Inc.) and one drop Reagent B were added with mixing to 5 mL modified Tyrodes buffer mix and let stand. The ligand solution was discarded and the plate washed (5×200 μL/well) with modified Tyrodes buffer. […] The Vecta Stain solution was discarded and the wells washed (5×200 μL/well) with modified Tyrodes buffer. Developing buffer (10 mL of 50 mM citrate/phosphate buffer @ pH 5.3, 6 mg o-phenylenediamine, 6 μL 30% H2O2; 50 μL/well) was added and incubated at RT for 3-5 min and then 2 N H2SO4 (50 μL/well) was added.

Another assay has as its target T2, human purified αVβ5 (Homo sapiens, UniProt P06756+P18084).
T2 construct: purchased Chemicon International, Inc
Description: In Vitro Solid Phase Purified αcβ5 Binding Assay (vitronectin/αVβ5). The settings on record: vitronectin binding to immobilized purified human αVβ5, mean ± spread. The method, then:
as §1
In Vitro Solid Phase Purified αcβ5 Binding Assay
All other aspects of the assay including buffers, reagents and incubation times remain unchanged.

Like-named read-outs stand apart in the source and are kept apart here.

T2 sequence (P06756 31-889 limits assumed): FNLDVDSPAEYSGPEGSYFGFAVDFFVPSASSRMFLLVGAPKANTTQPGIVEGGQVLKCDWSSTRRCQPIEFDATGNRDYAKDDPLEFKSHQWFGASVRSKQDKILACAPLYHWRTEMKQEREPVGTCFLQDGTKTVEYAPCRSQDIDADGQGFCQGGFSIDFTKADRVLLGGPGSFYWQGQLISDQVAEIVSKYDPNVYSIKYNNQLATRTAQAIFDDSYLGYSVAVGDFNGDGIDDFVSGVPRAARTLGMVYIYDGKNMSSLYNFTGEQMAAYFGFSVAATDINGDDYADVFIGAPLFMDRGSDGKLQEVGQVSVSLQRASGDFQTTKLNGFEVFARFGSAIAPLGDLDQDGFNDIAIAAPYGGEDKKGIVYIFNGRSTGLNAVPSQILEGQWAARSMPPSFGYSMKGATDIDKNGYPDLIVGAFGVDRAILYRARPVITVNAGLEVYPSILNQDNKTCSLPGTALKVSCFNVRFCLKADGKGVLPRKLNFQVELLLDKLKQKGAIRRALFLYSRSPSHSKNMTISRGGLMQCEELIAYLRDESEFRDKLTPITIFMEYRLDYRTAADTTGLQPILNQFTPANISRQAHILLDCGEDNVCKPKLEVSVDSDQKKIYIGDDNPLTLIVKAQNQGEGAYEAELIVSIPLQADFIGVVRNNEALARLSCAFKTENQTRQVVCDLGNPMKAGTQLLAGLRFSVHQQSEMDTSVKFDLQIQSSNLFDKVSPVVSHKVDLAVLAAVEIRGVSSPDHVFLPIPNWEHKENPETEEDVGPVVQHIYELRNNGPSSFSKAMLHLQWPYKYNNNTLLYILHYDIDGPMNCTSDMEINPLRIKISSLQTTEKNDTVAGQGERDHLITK
T2 sequence (P06756 891-1048 partner limits assumed): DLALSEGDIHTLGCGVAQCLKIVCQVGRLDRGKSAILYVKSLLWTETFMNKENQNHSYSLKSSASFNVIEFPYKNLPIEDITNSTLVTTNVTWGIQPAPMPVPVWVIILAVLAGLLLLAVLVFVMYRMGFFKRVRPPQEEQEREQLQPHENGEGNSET
T2 sequence (P18084 24-799): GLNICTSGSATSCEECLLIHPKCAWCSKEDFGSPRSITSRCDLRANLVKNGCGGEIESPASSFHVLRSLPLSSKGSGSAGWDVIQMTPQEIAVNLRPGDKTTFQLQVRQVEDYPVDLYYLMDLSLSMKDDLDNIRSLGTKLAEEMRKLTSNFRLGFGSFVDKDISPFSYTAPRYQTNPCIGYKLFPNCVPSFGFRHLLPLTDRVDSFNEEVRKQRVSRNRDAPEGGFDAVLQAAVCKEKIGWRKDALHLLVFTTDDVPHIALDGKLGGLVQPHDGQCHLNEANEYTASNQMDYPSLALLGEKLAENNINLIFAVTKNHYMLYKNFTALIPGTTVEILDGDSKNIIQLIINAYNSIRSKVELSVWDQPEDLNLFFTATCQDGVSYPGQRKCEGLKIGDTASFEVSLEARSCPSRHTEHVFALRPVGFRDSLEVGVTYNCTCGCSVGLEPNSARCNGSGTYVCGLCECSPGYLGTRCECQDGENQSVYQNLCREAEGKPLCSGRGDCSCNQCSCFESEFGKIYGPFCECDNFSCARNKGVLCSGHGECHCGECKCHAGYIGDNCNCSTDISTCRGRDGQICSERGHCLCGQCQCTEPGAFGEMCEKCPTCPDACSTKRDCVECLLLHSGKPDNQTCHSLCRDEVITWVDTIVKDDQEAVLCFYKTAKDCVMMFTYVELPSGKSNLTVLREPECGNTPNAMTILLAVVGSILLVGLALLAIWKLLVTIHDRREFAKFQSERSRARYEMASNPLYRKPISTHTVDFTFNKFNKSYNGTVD
T1 sequence (P06756 31-889 limits assumed): as the sequence (P06756 31-889 limits assumed) above
T1 sequence (P06756 891-1048 partner limits assumed): as the sequence (P06756 891-1048 partner limits assumed) above
T1 sequence (P05106 27-788): as the sequence (P05106 27-788) above

For `COc1ccc(C(CC(=O)O)CC2CCN(C(=O)CCc3ccc4c(n3)NCCC4)CC2)cn1` (single isomer, unassigned) [Cpd 28b, 6-methoxy-β-[[1-[1-oxo-3-(5,6,7,8-tetrahydro-1,8-naphthyridin-2-yl)propyl]-4-piperidinyl]methyl]-3-pyridinepropanoic acid], the IC50 on Human αvβ3 (read-out: αvβ3IC50) came to 0.0208 ± 0.0053 µM; at GP IIb/IIIa (read-out: αIIbβ3 IC50), 24.3 µM; on human purified αVβ5 (read-out: αvβ5 IC50), 0.126 ± 0.0448 µM.
Turning to `CCCCCCCCOC(=O)CCCC1CCN(C(=O)CCc2ccc3c(n2)NCCC3)CC1` [Cpd 71, 4-[1-(3-5,6,7,8-Tetrahydro-[1,8]naphthyridin-2-yl-propionyl)-piperidin-4-yl]-butyric acid octyl ester], the IC50 was more than 0.5 µM at Human αvβ3 (read-out: αvβ3IC50), more than 50 µM at GP IIb/IIIa (read-out: αIIbβ3 IC50) and more than 1 µM at human purified αVβ5 (read-out: αvβ5 IC50).
The like results for `CSc1cccc(C(CC(=O)O)CC2CCN(C(=O)CCc3ccc4c(n3)NCCC4)CC2)c1` (racemic) [Cpd 66] were, in that order, 0.0012 ± 0.0001 µM, 28.3 µM and 0.0103 ± 0.0014 µM.
Taken in the same sequence, the figures for `COc1cccc(C(CC(=O)O)CC2CCN(C(=O)CCc3ccc4c(n3)NCCC4)CC2)c1` (racemic) [Cpd 59] were 0.0026 ± 0.0014 µM, 7.81 ± 4.67 µM and 0.0096 ± 0.0038 µM.
`O=C(O)CC(CC1CCN(C(=O)CCc2ccc3c(n2)NCCC3)CC1)c1cccc(F)c1` (single isomer, unassigned) [Cpd 30b, β-(3-fluorophenyl)-1-[1-oxo-3-(5,6,7,8-tetrahydro-1,8-naphthyridin-2-yl)propyl]-4-piperidinebutanoic acid]: the values for the IC50 on Human αvβ3 (read-out: αvβ3IC50), on GP IIb/IIIa (read-out: αIIbβ3 IC50) and on human purified αVβ5 (read-out: αvβ5 IC50) were 0.0317 ± 0.0147 µM, more than 50 µM and 0.0482 ± 0.0028 µM, respectively.
Consider `O=C(O)CC(CCC1CCN(C(=O)CCCNc2ccccn2)CC1)c1ccc2c(c1)OCO2` (stereo not drawn) [Cpd 23, β-(1,3-benzodioxol-5-yl)-1-[1-oxo-4-(2-pyridinylamino)butyl]-4-piperidinepentanoic acid], for which the IC50 on Human αvβ3 (read-out: αvβ3IC50) was 0.298 ± 0.146 µM; on GP IIb/IIIa (read-out: αIIbβ3 IC50), 4.93 µM; on human purified αVβ5 (read-out: αvβ5 IC50), 2.01 µM.
As to `O=C(O)CC(CCC1CCN(C(=O)c2cccc(NC3=NCC(O)CN3)c2)CC1)c1ccc2c(c1)OCO2` (stereo not drawn) [Cpd 54, β-(1,3-benzodioxol-5-yl)-1-[3-[(1,4,5,6-tetrahydro-5-hydroxy-2-pyrimidinyl)amino]benzoyl]-4-piperidinepentanoic acid], the IC50 is 0.0017 ± 0.0005 µM at Human αvβ3 (read-out: αvβ3IC50), 0.24 µM at GP IIb/IIIa (read-out: αIIbβ3 IC50) and 0.0347 ± 0.0117 µM at human purified αVβ5 (read-out: αvβ5 IC50).
Take `O=C(O)CC(c1cnc2ccccc2c1)C1CCN(C(=O)CCCc2ccc3c(n2)NCCC3)CC1` (stereo not drawn) [Cpd 4, β-[1-[1-Oxo-4-(5,6,7,8-tetrahydro-1,8-naphthyridin-2-yl)butyl]-4-piperidinyl]-3-quinolinepropanoic acid]: the IC50 at Human αvβ3 (αvβ3IC50 (uM)) came out at 0.0005 ± 0.0001 µM; on GP IIb/IIIa (αIIbβ3 IC50 (uM)), 0.87 ± 0.19 µM; at human purified αVβ5 (αvβ5 IC50 (uM)), 0.0355 ± 0.0089 µM.
Regarding `O=C(O)CC(CC1CCN(C(=O)CCc2ccc3c(n2)NCCC3)CC1)c1cccc(F)c1` (single isomer, unassigned) [Cpd 30a, β-(3-fluorophenyl)-1-[1-oxo-3-(5,6,7,8-tetrahydro-1,8-naphthyridin-2-yl)propyl]-4-piperidinebutanoic acid], the IC50 at Human αvβ3 (read-out: αvβ3IC50) came to 0.0004 ± 0.0002 µM; at GP IIb/IIIa (read-out: αIIbβ3 IC50), 2.93 ± 1.86 µM; on human purified αVβ5 (read-out: αvβ5 IC50) it was 0.0019 ± 0.0004 µM.
Taken in the same sequence, the figures for `COc1ccc(C(CCC2CCN(C(=O)c3cccc(NC4=NCC(O)CN4)c3)CC2)CC(=O)O)cn1` (stereo not drawn) [Cpd 10, 6-Methoxy-β-[2-[1-[3-[(1,4,5,6-tetrahydro-5-hydroxy-2-pyrimidinyl)amino]benzoyl]-4-piperidinyl]ethyl]-3-pyridinepropanoic acid] were 0.0024 ± 0.0013 µM, 1.67 µM and 0.0335 ± 0.0075 µM.
Taken in the same sequence, the figures for `O=C(O)CC(CC1CCN(C(=O)CCc2ccc3c(n2)NCCC3)CC1)C1CNc2ccccc2C1` (single isomer, unassigned) [Cpd 19-4, 1,2,3,4-tetrahydro-β-[[1-[1-oxo-3-(5,6,7,8-tetrahydro-1,8-naphthyridin-2-yl)propyl]-4-piperidinyl]methyl]-3-quinolinepropanoic acid] were 0.0013 ± 0.0007 µM, 4.86 µM and 0.0075 ± 0.0018 µM.
Taken in the same sequence, the figures for `O=C(O)CC(CC1CCN(C(=O)CCc2ccc3c(n2)NCCC3)CC1)c1ccc(OC(F)(F)F)cc1` (stereo not drawn) [Cpd 40, 1-[1-oxo-3-(5,6,7,8-tetrahydro-1,8-naphthyridin-2-yl)propyl]-β-[4-(trifluoromethoxy)phenyl]-4-piperidinebutanoic acid] were 0.0052 ± 0.0002 µM, 24 ± 9.89 µM and 0.308 ± 0.063 µM.
As for `O=C(O)CC(CC1CCN(C(=O)CCc2ccc3c(n2)NCCC3)CC1)c1ccc(Oc2ccccc2)cc1` (stereo not drawn) [Cpd 43, 1-[1-oxo-3-(5,6,7,8-tetrahydro-1,8-naphthyridin-2-yl)propyl]-β-(4-phenoxyphenyl)-4-piperidinebutanoic acid], the results for the IC50 on Human αvβ3 (read-out: αvβ3IC50), on GP IIb/IIIa (read-out: αIIbβ3 IC50) and on human purified αVβ5 (read-out: αvβ5 IC50) were 0.0079 ± 0.0007 µM, 28.8 ± 15.8 µM and 0.222 ± 0.0885 µM, respectively.
On to `O=C(O)CC(CC1CCN(C(=O)CCc2ccc3c(n2)NCCC3)CC1)c1cnc2c(c1)CCCC2` (racemic) [Cpd 57, 5,6,7,8-tetrahydro-β-[[1-[1-oxo-3-(5,6,7,8-tetrahydro-1,8-naphthyridin-2-yl)propyl]-4-piperidinyl]methyl]-3-quinolinepropanoic acid], for which the IC50 on Human αvβ3 (αvβ3IC50 (uM)) was 0.0016 ± 0.0007 µM; at GP IIb/IIIa (αIIbβ3 IC50 (uM)) it was 3.04 ± 0.55 µM; on human purified αVβ5 (αvβ5 IC50 (uM)), 0.0109 ± 0.0042 µM.
`CC(C)OC(=O)CCCC1CCN(C(=O)CCc2ccc3c(n2)NCCC3)CC1` [Cpd 69, 4-[1-(3-5,6,7,8-Tetrahydro-[1,8]naphthyridin-2-yl-propionyl)-piperidin-4-yl]-butyric acid isopropyl ester]: the IC50 on Human αvβ3 (read-out: αvβ3IC50) is more than 0.5 µM; on GP IIb/IIIa (read-out: αIIbβ3 IC50) it was more than 50 µM; on human purified αVβ5 (read-out: αvβ5 IC50), more than 1 µM.
As for `O=C(O)CC(CC1CCN(C(=O)CCc2ccc3c(n2)NCCC3)CC1)c1ccc2c(c1)OCC2` (single isomer, unassigned) [Cpd 36b, 3-(2,3-Dihydro-benzofuran-6-yl)-4-[1-(3-5,6,7,8-tetrahydro-[1,8]naphthyridin-2-yl-propionyl)-piperidin-4-yl]-butyric acid], the results for the IC50 on Human αvβ3 (read-out: αvβ3IC50), on GP IIb/IIIa (read-out: αIIbβ3 IC50) and at human purified αVβ5 (read-out: αvβ5 IC50) were 0.084 µM, more than 50 µM and 0.129 µM, respectively.
In the case of `COc1cc(C(CC(=O)O)CC2CCN(C(=O)CCc3ccc4c(n3)NCCC4)CC2)ccc1O` (racemic) [Cpd 76, 3-(4-Hydroxy-3-methoxy-phenyl)-4-[1-(3-5,6,7,8-tetrahydro-[1,8]naphthyridin-2-yl-propionyl)-piperidin-4-yl]-butyric acid], the IC50 at Human αvβ3 (read-out: αvβ3IC50) stood at 0.0018 ± 0.0003 µM; on GP IIb/IIIa (read-out: αIIbβ3 IC50), 5.38 µM; at human purified αVβ5 (read-out: αvβ5 IC50), 0.0397 ± 0.0121 µM.
Regarding `O=C(O)CC(CC1CCN(C(=O)CCc2ccc3c(n2)NCCC3)CC1)c1ccc2c(c1)OCC2` (single isomer, unassigned) [Cpd 36a, 3-(2,3-Dihydro-benzofuran-6-yl)-4-[1-(3-5,6,7,8-tetrahydro-[1,8]naphthyridin-2-yl-propionyl)-piperidin-4-yl]-butyric acid], the IC50 on Human αvβ3 (read-out: αvβ3IC50) is 0.0004 µM; on GP IIb/IIIa (read-out: αIIbβ3 IC50), 0.79 ± 0.05 µM; on human purified αVβ5 (read-out: αvβ5 IC50), 0.0009 ± 0.0006 µM.
The like results for `NC(=O)CC(CC1CCN(C(=O)CCc2ccc3c(n2)NCCC3)CC1)c1cccc(F)c1` (racemic) [Cpd 64, 3-(3-Fluoro-phenyl)-4-[1-(3-5,6,7,8-tetrahydro-[1,8]naphthyridin-2-yl-propionyl)-piperidin-4-yl]-butyramide] were, in that order, 0.0615 ± 0.0055 µM, more than 50 µM and 0.147 ± 0.0847 µM.
Take `O=C(O)CC(CC1CCN(C(=O)CCc2ccc3c(n2)NCCC3)CC1)c1cnc2ccccc2c1` (stereo not drawn) [Cpd 32, β-[[1-[1-oxo-3-(5,6,7,8-tetrahydro-1,8-naphthyridin-2-yl)propyl]-4-piperidinyl]methyl]-3-quinolinepropanoic acid]: the IC50 on Human αvβ3 (αvβ3IC50 (uM)) is 0.0008 ± 0.0002 µM; on GP IIb/IIIa (read-out: αIIbβ3 IC50), 1.05 ± 0.56 µM; on human purified αVβ5 (αvβ5 IC50 (uM)) it was 0.0022 ± 0.0007 µM.
